Test results as given in US20180305345A1 (priority 2015, published 2018).

What was measured:
[1] = tested on: VSVΔ51 in 786-0 cells; type: cell-based, human
[2] = tested on: MG1-eGFP in 786-0 cells; type: cell-based, human
[3] = tested on: VSVΔ51; details: cited from earlier work
[4] = tested on: 786-0 cells; details: human
[5] = tested on: ICPO-null HSV-N212eGFP in 786-0 cells; type: cell-based, human; details: MOI 0.01, 48 h after infection
[6] = mouse; for Plasma stab. % remaning at 3 hrs: Balb/c, pH 7.4
[7] = female, Balb/c, mouse, in vivo
[8] = tested on: VSVΔ51-GFP in CT26 murine colon cancer tumors; type: cell-based, mouse
[9] = physchem; details: buffer
[10] = tested on: oncolytic HSV-1 expressing GFP in 786-0 cancer cells; type: cell-based, human
[11] = physchem; details: buffer, pH 7.4
[12] = tested on: VSVΔ51-GFP in normal mouse brain, lung and spleens
[13] = tested on: VSVΔ51-FLuc in CT26 tumors; set-up: species or system Balb/c mice; details: mouse, in vivo

| Structure (SMILES) | LD50 [4] [µM] | Plasma stab. % remaning at 3 hrs [6] [%] | half-life [9] [min] | other results |
| --- | --- | --- | --- | --- |
| O=C1OC(c2ccccc2)C(Cl)=C1Cl (centres unmarked) [Compound 1, 3,4-dichloro-5-phenyl-2,5-dihydrofuran-2-one, reference compound] | 79 | 0 | < 5 | enhancement of viral titers after pre-incubation of compound in media [1]: did not lead to robust enhancement of viral titers; GFP counts, MG1-eGFP [2]: increased GFP counts; increase of virus output [3]: ≤ 1,000 fold; GFP counts, HSV-N212eGFP [5]: increased GFP counts; dose at which toxicity starts ([7]; ip): ≥ 10 mg/kg; VSVΔ51-GFP titers / replication in tumor specimens [8]: enhanced; growth of oncolytic HSV-1 expressing GFP [10]: increased growth; half-life [11]: 28.8 min |
| O=C1OC(c2ccccc2)C(Br)=C1Br (centres unmarked) [Compound 2] | 87 | 0 | < 5 | – |
| O=C1OC(c2ccccc2)C(NCc2ccccc2)=C1Cl (centres unmarked) [Compound 3] | 140 | 65.6 ± 6.5 | – | – |
| CC(C)CNC1=C(Cl)C(=O)OC1c1ccccc1 (centres unmarked) [Compound 4] | 90 | 0 | – | – |
| O=C1OCC(Cl)=C1Cl [Compound 5, 3,4-Dichloro-5H-furan-2-one] | 41 | 0 | < 5 | – |
| COC1OC(=O)C(Cl)=C1Cl (centres unmarked) [Compound 6] | 73 | 0 | < 5 | – |
| C#CCOC1OC(=O)C(Cl)=C1Cl (centres unmarked) [Compound 7] | 52 | 0 | < 5 | – |
| O=c1[nH]n(-c2ccccc2)c(Cl)c1Cl [Compound 8] | >180 | 88.3 ± 9.3 | – | – |
| O=C1NC(O)C(Cl)=C1Cl (centres unmarked) [Compound 9] | 148 | 0 | 117 | stability in the plasma assay [6]: remarkably improved stability |
| O=C1C(Cl)=C(Cl)C(O)N1Cc1ccccc1 (stereo not drawn) [Compound 10, α,β-dichloro-γ-hydroxy-N-benzyl-crotonic lactam] | 67 | 19.8 ± 0.4 | 32 | GFP counts, MG1-eGFP [2]: increased GFP counts; GFP counts, HSV-N212eGFP [5]: increased GFP counts; stability in the plasma assay [6]: remarkably improved stability; dose up to which well tolerated ([7]; ip): ≤ 50 mg/kg; growth of oncolytic HSV-1 expressing GFP [10]: increased growth |
| O=C1C(Cl)=C(Cl)CN1Cc1ccccc1 [Compound 11] | 332 | 42.5 ± 9.6 | 64 | – |
| COC1C(Cl)=C(Cl)C(=O)N1Cc1ccccc1 (centres unmarked) [Compound 12] | 206 | 47.6 ± 1.4 | 118 | – |
| CC(=O)OC1C(Cl)=C(Cl)C(=O)N1Cc1ccccc1 (centres unmarked) [Compound 13] | 61 | 0 | 21 | – |
| O=C1C(Cl)=C(Cl)C(=O)N1Cc1ccccc1 [Compound 14] | 104 | 70.2 ± 8.4 | < 5 | – |
| O=C1C(Cl)=C(Cl)C(O)(c2ccccc2)N1Cc1ccccc1 (centres unmarked) [Compound 15] | 66 | 14.9 ± 7.1 | 340 | – |
| O=C1C=CC(O)N1Cc1ccccc1 (centres unmarked) [Compound 16] | >360 | 98.2 ± 3.7 | – | – |
| CC1=C(C)C(O)N(Cc2ccccc2)C1=O (centres unmarked) [Compound 17] | >360 | 82.0 ± 10.2 | – | – |
| CCC1=C(Cl)C(=O)N(Cc2ccccc2)C1O (centres unmarked) [Compound 18] | >360 | – | – | – |
| O=C1C(Cl)=C(c2ccccc2)C(O)N1Cc1ccccc1 (centres unmarked) [Compound 19] | 250 | – | – | – |
| O=C1c2ccccc2C(O)N1Cc1ccccc1 (centres unmarked) [Compound 20] | >360 | 102.9 ± 1.6 | – | – |
| CC(=O)NCCSC1=C(Cl)C(=O)N(Cc2ccccc2)C1O (centres unmarked) [Compound 21] | >90 | 102.7 ± 10.8 | – | – |
| O=C1C(Cl)=C(Cl)C(O)N1C1CC1 (centres unmarked) [Compound 25, 3,4-dichloro-1-cyclopropyl-5-hydroxy-1H-pyrrol-2(5H)-one] | 127 | 54.8 ± 3.6 | 53 | – |
| O=C1C(Cl)=C(Cl)C(O)N1CCN1CCOCC1 (centres unmarked) [Compound 28, 3,4-dichloro-5-hydroxy-1-(2-morpholinoethyl)-1H-pyrrol-2(5H)-one] | 153 | 38.9 ± 5.2 | 96 | GFP counts, MG1-eGFP [2]: increased GFP counts; impact on VSVΔ51 in normal tissue specimens [12]: little to no impact; tumor-specific viral replication (luciferase activity, IVIS) [13]: significantly enhanced; GFP counts, HSV-N212eGFP [5]: increased GFP counts; tolerated dose relative to parent compound 1 [7]: > 10 ×; dose up to which well tolerated ([7]; ip): up to 100 mg/kg; enhancement of VSVΔ51 output in tumor specimens [8]: ~100 fold |
| O=C1C(Cl)=C(Cl)C(O)N1CCc1ccccc1 (centres unmarked) [Compound 29, 3,4-dichloro-5-hydroxy-1-phenethyl-1H-pyrrol-2(5H)-one] | 74 | 57.6 ± 6.6 | 74 | GFP counts, MG1-eGFP [2]: increased GFP counts; GFP counts, HSV-N212eGFP [5]: increased GFP counts |
| O=C1C(Cl)=C(Cl)C(O)N1Cc1ccc(C(F)(F)F)cc1 (centres unmarked) [Compound 40, 3,4-dichloro-5-hydroxy-1-(4-(trifluoromethyl)benzyl)-1H-pyrrol-2(5H)-one] | 36 | 15.3 ± 2.5 | 32 | impact on VSVΔ51 in normal tissue specimens [12]: increases infection and replication in brain tissue; VSVΔ51-GFP titers / replication in tumor specimens [8]: enhances replication in tumors |
